# Like-named read-outs stand apart in the source and are kept apart here.
# Key:
# [1] = Two-way crossover pilot bioavailability study, IV (1-hour infusion) vs PO temozolomide; assay type: in vivo, human; conditions: for bioavailability / AUC / Cmax: human, plasma; for bioavailability: po, 150 mg/m^2/day, humans, n=13 patients; for AUC / Cmax: n = 13
# Description: To validate the IV PK model, the first pass effects and oral bioavailability were determined in a two-way crossover pilot bioavailability study. This was a Phase-1, randomized, open-label pilot study designed to compare the relative bioavailability of IV and PO temozolomide in adult patients with histologically confirmed primary CNS malignancies. The study was conducted in conformance with Good Clinical Practices. Up to 18 patients (to yield 12 evaluable patients) were planned to be enrolled at 1 or 2 centers. 13 patients were enrolled at 2 centers (7 at Center 1, 6 at Center 2). All 13 patients were included in pharmacokinetic and safety analyses. Patients were followed for 23 days after treatment ended for safety evaluations.
# After fulfilling all study eligibility requirements, the patients received temozolomide for 5 days (Days 1 to 5) during a 4-week treatment cycle. On Days 1, 2, and 5, patients received temozolomide (200 mg/m^2/day) as a PO dose. On Days 3 and 4, patients received Temozolomide (150 mg/m^2/day) as a PO dose on one day and as an IV dose on the other day. The IV dose was administered by 1-hour infusion (using an infusion pump) either on Day 3 or Day 4 according to a random code. Pharmacokinetic evaluations were performed on Days 3 and 4 for determination of concentrations of temozolomide and MTIC in plasma.
# [2] = PO TMZ, Dose = 150 mg/m^2, Actual n = 12; cited from earlier work
# [3] = Clinical bioequivalence study, IV (1.5-hr infusion) vs oral TMZ, primary CNS malignancies; assay type: in vivo, human; conditions: for Tmax / half-life / AUC / Cmax / concentration at 0 hr / concentration at 0.25 hr / concentration at 0.5 hr / concentration at 1 hr / concentration at 1.25 hr / concentration at 1.5 hr / concentration at 1.75 hr / concentration at 2 hr / concentration at 2.5 hr / concentration at 3 hr / concentration at 4 hr / concentration at 6 hr / concentration at 8 hr: human, plasma; for Tmax: read-out: Tmax, Median (range); for half-life: read-out: t½ terminal-phase half-life, Mean (CV, %) (converted); for concentration at 0 hr / concentration at 0.25 hr / concentration at 0.5 hr / concentration at 1 hr / concentration at 1.25 hr / concentration at 1.5 hr / concentration at 1.75 hr / concentration at 2 hr / concentration at 2.5 hr / concentration at 3 hr / concentration at 4 hr / concentration at 6 hr / concentration at 8 hr: read-out: Mean Temozolomide Concentration
# Description: Twenty-two patients with primary CNS malignancies were enrolled in a clinical bioequivalence study and treated according to the methods of the present invention. Nineteen of the patients were considered to be pharmacokinetic evaluable. This study was a randomized, open-label, 2-way cross over study of the PK of oral and IV TMZ. The IV formulation of Example 3 is administered at a dosage of 150-200 mg/m^2 by intravenous infusion over a period of about 1.5 hours.
# The patients are divided into two groups, those receiving Treatment A and those receiving Treatment B. The Treatment A patients receive oral TMZ (200 mg/m^2) on Days 1, 2 and 5, IV TMZ 150 mg/m2 on Day 3, and oral TMZ (150 mg/m^2) on Day 4 of a 28 day cycle. The Treatment B patients receive oral TMZ (200 mg/m^2) on Days 1, 2 and 5, Oral TMZ (150 mg/m^2) on Day 3 and IV TMZ (150 mg/m^2) on Day 4 of a 28 day cycle. Cmax and AUC for TMZ and MTIC are determined according to methods known to those skilled in the art on Days 3 and 4.
# [4] = 1-hour infusion vs PO, 150 mg/m2/day
# [5] = 1.5-hr infusion vs PO, 150 mg/m^2/day, n = 19
# [6] = TMZ IV 1.5 hr infusion, 150 mg/m^2/day, n = 19
# [7] = 150 mg/m2, TMZ PO, 150 mg/m^2/day, n = 19
# [8] = IV 1.5 hr infusion, 150 mg/m^2/day, n = 19
# [9] = IV 1.5 hr infusion, 150 mg/m^2/day, n = 18
structure (smiles),measurement,setting,value
"Cn1nnc2c(C(N)=O)ncn2c1=O [TMZ, 3,4-dihydro-3-methyl-4-oxoimidazo[5,1-d]-as-tetrazine-8-carboxamide]",AUC Ratio Estimate IV/PO,[1]; [4],104%
same,"AUC ratio IV/PO, 90% C.I.",[1]; [4],97-112%
same,Cmax Ratio Estimate IV/PO,[1]; [4],114%
same,"Cmax ratio IV/PO, 90% C.I.",[1]; [4],100-131%
same,bioavailability,[1]; read-out: oral bioavailability,96%
same,bioavailability,"[1]; read-out: oral bioavailability, range",89 to 100%
same,AUC,"[1]; TMZ IV 1-hour infusion, 150 mg/m2/day, read-out: AUC of TMZ, IV Mean (least-squares)",21500 ng·h/mL
same,Cmax,"[1]; TMZ IV 1-hour infusion, 150 mg/m2/day, read-out: Cmax of TMZ, IV Mean (least-squares)",7100 ng/mL
same,AUC,"[1]; TMZ PO, 150 mg/m2/day, read-out: AUC of TMZ, PO Mean (least-squares)",20700 ng·h/mL
same,Cmax,"[1]; TMZ PO, 150 mg/m2/day, read-out: Cmax of TMZ, PO Mean (least-squares)",6200 ng/mL
same,Maximum AUC,[2],35.4 µg·h/mL
same,Maximum Cmax,[2],16.8 µg/mL
same,Mean AUC,[2],24.8 µg·h/mL
same,Mean Cmax,[2],8.8 µg/mL
same,Minimum AUC,[2],17.7 µg·h/mL
same,Minimum Cmax,[2],2.6 µg/mL
same,AUC(I) Ratio Estimate IV to PO,[3]; [5],105%
same,"AUC(I) ratio IV to PO, 90% Confidence Interval",[3]; [5],102-108%
same,AUC(tf) Ratio Estimate IV to PO,[3]; [5],106%
same,"AUC(tf) ratio IV to PO, 90% Confidence Interval",[3]; [5],103-109%
same,Cmax Ratio Estimate IV to PO,[3]; [5],97%
same,"Cmax ratio IV to PO, 90% Confidence Interval",[3]; [5],91-102%
same,bioequivalence of IV (1.5-hr infusion) and oral formulations,"[3]; Cmax, AUC(tf), AUC(I) of temozolomide and MTIC, n=19",bioequivalent
same,"tf time of final quantifiable sample, Mean (CV, %)",[3]; [6],8.00 (0) hr
same,"tf time of final quantifiable sample, Mean (CV, %)","[3]; TMZ PO, 150 mg/m^2/day, n = 19",8.00 (0) hr
same,Tmax,[3]; [7],1 h
same,half-life,[3]; [7],115 min
same,AUC,"[3]; iv, 150 mg/m2, IV infusion about 1 hour to about 2 hours, single dose of 150 mg/m2, read-out: arithmetic AUC (from time zero to infinity) for temozolomide, range",17600 to 37000 ng·h/mL
same,Cmax,"[3]; iv, 150 mg/m2, IV infusion about 1 hour to about 2 hours, single dose of 150 mg/m2, read-out: arithmetic maximum plasma concentration (Cmax) of temozolomide, range",5500 to 10600 ng/mL
same,AUC,"[3]; iv, 150 mg/m2, IV infusion about 1 hour to about 2 hours, single dose of 150 mg/m2, read-out: arithmetic mean AUC (from time zero to infinity) for temozolomide",~25000 ng·h/mL
same,Cmax,"[3]; iv, 150 mg/m2, IV infusion about 1 hour to about 2 hours, single dose of 150 mg/m2, read-out: arithmetic mean maximum plasma concentration (Cmax) of temozolomide",~7400 ng/mL
same,AUC,"[3]; iv, 150 mg/m2, arithmetic mean AUC (from time zero to infinity) for temozolomide, IV infusion about 1 hour to about 2 hours, single dose of 150 mg/m2, heading: arithmetic mean AUC for temozolomide",~25000 ng·h/mL
same,AUC,"[3]; iv, 150 mg/m^2/day, TMZ IV 1.5 hr infusion, 150 mg/m^2/day, n = 19, read-out: AUC(I) of TMZ, Mean",25000 ng·h/mL
same,AUC,"[3]; iv, 150 mg/m^2/day, TMZ IV 1.5 hr infusion, 150 mg/m^2/day, n = 19, read-out: AUC(tf) of TMZ, Mean",23400 ng·h/mL
same,Cmax,"[3]; iv, 150 mg/m^2/day, TMZ IV 1.5 hr infusion, 150 mg/m^2/day, n = 19, read-out: Cmax of TMZ, arithmetic Mean",7440 ng/mL
same,AUC,"[3]; iv, 150 mg/m^2/day, TMZ IV 1.5 hr infusion, 150 mg/m^2/day, n = 19 PE, read-out: AUC(I) of TMZ, IV Mean (least-squares)",24600 ng·h/mL
same,AUC,"[3]; iv, 150 mg/m^2/day, TMZ IV 1.5 hr infusion, 150 mg/m^2/day, n = 19 PE, read-out: AUC(tf) of TMZ, IV Mean (least-squares)",23100 ng·h/mL
same,Cmax,"[3]; iv, 150 mg/m^2/day, TMZ IV 1.5 hr infusion, 150 mg/m^2/day, n = 19 PE, read-out: Cmax of TMZ, IV Mean (least-squares)",7290 ng/mL
same,AUC,"[3]; po, 150 mg/m2, TMZ PO, 150 mg/m^2/day, n = 19, read-out: AUC(I) of TMZ, Mean",23600 ng·h/mL
same,AUC,"[3]; po, 150 mg/m2, TMZ PO, 150 mg/m^2/day, n = 19, read-out: AUC(tf) of TMZ, Mean",22000 ng·h/mL
same,Cmax,"[3]; po, 150 mg/m2, TMZ PO, 150 mg/m^2/day, n = 19, read-out: Cmax of TMZ, arithmetic Mean",7680 ng/mL
same,AUC,"[3]; po, 150 mg/m2, TMZ PO, 150 mg/m^2/day, n = 19 PE, read-out: AUC(I) of TMZ, PO Mean (least-squares)",23400 ng·h/mL
same,AUC,"[3]; po, 150 mg/m2, TMZ PO, 150 mg/m^2/day, n = 19 PE, read-out: AUC(tf) of TMZ, PO Mean (least-squares)",21800 ng·h/mL
same,Cmax,"[3]; po, 150 mg/m2, TMZ PO, 150 mg/m^2/day, n = 19 PE, read-out: Cmax of TMZ, PO Mean (least-squares)",7540 ng/mL
same,concentration at 0 hr,[3]; [8],0 ng/mL
same,concentration at 0.25 hr,[3]; [9],2380 ng/mL
same,concentration at 0.5 hr,[3]; [8],3670 ng/mL
same,concentration at 1 hr,[3]; [8],5490 ng/mL
same,concentration at 1.25 hr,[3]; [9],6590 ng/mL
same,concentration at 1.5 hr,[3]; [8],7080 ng/mL
same,concentration at 1.75 hr,[3]; [8],6100 ng/mL
same,concentration at 2 hr,[3]; [8],5600 ng/mL
same,concentration at 2.5 hr,[3]; [8],4590 ng/mL
same,concentration at 3 hr,[3]; [9],3860 ng/mL
same,concentration at 4 hr,[3]; [8],2810 ng/mL
same,concentration at 6 hr,[3]; [8],1200 ng/mL
same,concentration at 8 hr,[3]; [8],590 ng/mL
same,concentration at 0 hr,"[3]; PO, 150 mg/m^2/day, n = 19",0 ng/mL
same,concentration at 0.25 hr,"[3]; PO, 150 mg/m^2/day, n = 19",2110 ng/mL
same,concentration at 0.5 hr,"[3]; PO, 150 mg/m^2/day, n = 19",5320 ng/mL
same,concentration at 1 hr,"[3]; PO, 150 mg/m^2/day, n = 19",6050 ng/mL
same,concentration at 1.25 hr,"[3]; PO, 150 mg/m^2/day, n = 18",6120 ng/mL
same,concentration at 1.5 hr,"[3]; PO, 150 mg/m^2/day, n = 19",5770 ng/mL
same,concentration at 1.75 hr,"[3]; PO, 150 mg/m^2/day, n = 18",5360 ng/mL
same,concentration at 2 hr,"[3]; PO, 150 mg/m^2/day, n = 19",4890 ng/mL
same,concentration at 2.5 hr,"[3]; PO, 150 mg/m^2/day, n = 19",4000 ng/mL
same,concentration at 3 hr,"[3]; PO, 150 mg/m^2/day, n = 19",3440 ng/mL
same,concentration at 4 hr,"[3]; PO, 150 mg/m^2/day, n = 19",2410 ng/mL
same,concentration at 6 hr,"[3]; PO, 150 mg/m^2/day, n = 19",1170 ng/mL
same,concentration at 8 hr,"[3]; PO, 150 mg/m^2/day, n = 19",560 ng/mL
same,Tmax,[3]; [6],1.5 h
same,half-life,[3]; [6],109 min
